#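 Assay format: 96-well plates, 48-hour exposure. The concentration for 50% growth inhibition is given as GI50.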 The source made the active and inactive calls. Cut-off read from the data, not from the text of the source: active = GI50 up to about 1.1 µM and inactive = higher.
# How the values were obtained:
# Assay in all cases: NCI-60 cell line screen, 48 h
# [1] = system: 786-0
# [2] = system: KM12
# [3] = system: MDA-MB-435
# [4] = system: LOX IMVI
# [5] = system: HOP-92
# [6] = system: IGROV-1
# [7] = system: NCI-H522
# [8] = system: HT-29
# [9] = system: HCT-15
# [10] = system: Malme-3M
# [11] = system: COLO 205
# [12] = system: RPMI-8226
# [13] = system: OVCAR-5
# [14] = system: MOLT-4
# [15] = system: TK-10
# [16] = system: SN12C
# [17] = system: Hs-578T
# [18] = system: T47D
# [19] = system: PC-3
# [20] = system: HOP-62
Structure (SMILES),GI50 [1],GI50 [2],GI50 [3],GI50 [4],GI50 [5],GI50 [6],GI50 [7],GI50 [8],GI50 [9] [µM],GI50 [10],GI50 [11],GI50 [12],GI50 [13],GI50 [14],GI50 [15],GI50 [16],GI50 [17],GI50 [18],GI50 [19],GI50 [20]
O=C(NC(Cc1c[nH]c2ccccc12)C(=O)O)/C(=C/c1ccccc1O)NC(=O)c1ccccc1 (configuration not stated),18.6 µM (inactive),7.16 µM (inactive),18.9 µM (inactive),33 µM (inactive),14.5 µM (inactive),19.2 µM (inactive),20.4 µM (inactive),> 100 µM (inactive),25.6,22.4 µM (inactive),> 100 µM (inactive),> 100 µM (inactive),> 100 µM (inactive),> 100 µM (inactive),37.7 µM (inactive),24.7 µM (inactive),24.6 µM (inactive),12.1 µM (inactive),–,–
Cc1ccc(Nc2c3c(c(C#N)c4nc5ccccc5n24)CCCC3)cc1,26.7 µM (inactive),> 100 µM (inactive),18.2 µM (inactive),22.1 µM (inactive),17.1 µM (inactive),28.2 µM (inactive),14.3 µM (inactive),13.6 µM (inactive),16.9,30.7 µM (inactive),18.3 µM (inactive),–,34 µM (inactive),3.73 µM (inactive),25.5 µM (inactive),17.4 µM (inactive),> 100 µM (inactive),13.7 µM (inactive),6.64 µM (inactive),–
O=C1C2C(C(=O)N1c1ccccc1)C1(c3ccccc3)CCC2(C(=O)c2ccccc2)O1 (configuration not stated),> 10 µM (inactive),> 10 µM (inactive),> 10 µM (inactive),> 10 µM (inactive),–,> 10 µM (inactive),> 10 µM (inactive),> 10 µM (inactive),> 10,> 10 µM (inactive),> 10 µM (inactive),> 10 µM (inactive),> 10 µM (inactive),9.82 µM (inactive),> 10 µM (inactive),> 10 µM (inactive),> 10 µM (inactive),> 10 µM (inactive),> 10 µM (inactive),> 10 µM (inactive)
CC(=O)Oc1ccc2c(c1)Oc1cc(C(C)=O)ccc1C21OC(=O)c2ccccc21 (configuration not stated),> 100 µM (inactive),> 100 µM (inactive),88.3 µM (inactive),> 100 µM (inactive),> 100 µM (inactive),85.5 µM (inactive),> 100 µM (inactive),> 100 µM (inactive),> 100,> 100 µM (inactive),> 100 µM (inactive),30.2 µM (inactive),> 100 µM (inactive),> 100 µM (inactive),> 100 µM (inactive),> 100 µM (inactive),–,> 100 µM (inactive),> 100 µM (inactive),64.6 µM (inactive)
O=C(Nc1ccc(Cl)cc1)NS(=O)(=O)c1ccc2c(c1)CCC2 [SULOFENUR],35.3 µM (inactive),36.1 µM (inactive),17.6 µM (inactive),37.6 µM (inactive),–,12.3 µM (inactive),27.9 µM (inactive),61.1 µM (inactive),35.6,24.5 µM (inactive),29.8 µM (inactive),24.4 µM (inactive),> 43.8 µM (inactive),26.4 µM (inactive),40.5 µM (inactive),39.2 µM (inactive),0.209 µM (active),16.4 µM (inactive),19.1 µM (inactive),32.2 µM (inactive)
N=c1c2ccccc2nc2oc3ccccc3n12,> 10 µM (inactive),–,> 100 µM (inactive),53.8 µM (inactive),26.5 µM (inactive),20.6 µM (inactive),–,> 100 µM (inactive),> 100,41.1 µM (inactive),> 100 µM (inactive),> 100 µM (inactive),45.3 µM (inactive),–,28.4 µM (inactive),> 100 µM (inactive),20.6 µM (inactive),–,85.1 µM (inactive),23.2 µM (inactive)
Cc1c(C)c(C)c(CC2(C)CSC2)c(CC2(C)CSC2)c1C,> 100 µM (inactive),–,–,> 100 µM (inactive),> 100 µM (inactive),> 100 µM (inactive),> 100 µM (inactive),> 100 µM (inactive),> 100,> 100 µM (inactive),> 100 µM (inactive),> 100 µM (inactive),> 100 µM (inactive),> 100 µM (inactive),> 100 µM (inactive),> 100 µM (inactive),> 100 µM (inactive),> 100 µM (inactive),> 100 µM (inactive),> 100 µM (inactive)
O=C1/C(=C/c2cccc3ccccc23)CCc2ccc([N+](=O)[O-])cc21,23.3 µM (inactive),6.32 µM (inactive),6.71 µM (inactive),26.9 µM (inactive),23 µM (inactive),31.4 µM (inactive),–,–,17.9,17.3 µM (inactive),34 µM (inactive),11.8 µM (inactive),> 100 µM (inactive),> 100 µM (inactive),27.2 µM (inactive),28.4 µM (inactive),9.57 µM (inactive),21 µM (inactive),24.5 µM (inactive),28.2 µM (inactive)
COc1cc(C23OCC(Cc4cc5c(cc42)OCO5)C3CO)cc(OC)c1OC (configuration not stated),3.09 µM (inactive),0.215 µM (active),0.119 µM (active),1.97 µM (inactive),> 100 µM (inactive),2.44 µM (inactive),2.22 µM (inactive),5.64 µM (inactive),0.538,6.14 µM (inactive),2.55 µM (inactive),–,6.81 µM (inactive),13.2 µM (inactive),> 24.4 µM (inactive),–,18.5 µM (inactive),–,1.85 µM (inactive),4.34 µM (inactive)
O=[N+]([O-])c1ccc(NN=C2CN3CCN(C2)c2ccccc23)c([N+](=O)[O-])c1,> 100 µM (inactive),> 100 µM (inactive),> 100 µM (inactive),> 100 µM (inactive),85.3 µM (inactive),97.3 µM (inactive),> 100 µM (inactive),> 100 µM (inactive),> 100,> 100 µM (inactive),> 100 µM (inactive),–,> 100 µM (inactive),> 100 µM (inactive),> 100 µM (inactive),> 100 µM (inactive),> 100 µM (inactive),> 100 µM (inactive),> 100 µM (inactive),> 100 µM (inactive)
OCC1CCCC1O (configuration not stated),> 100 µM (inactive),> 100 µM (inactive),> 100 µM (inactive),–,> 100 µM (inactive),> 100 µM (inactive),> 100 µM (inactive),> 100 µM (inactive),> 100,> 100 µM (inactive),> 100 µM (inactive),> 100 µM (inactive),> 100 µM (inactive),> 100 µM (inactive),> 100 µM (inactive),> 100 µM (inactive),–,> 100 µM (inactive),> 100 µM (inactive),–
c1ccc2c(c1)nc1n2CCNC1,> 100 µM (inactive),> 100 µM (inactive),> 100 µM (inactive),> 100 µM (inactive),> 100 µM (inactive),> 100 µM (inactive),–,> 100 µM (inactive),> 100,–,> 100 µM (inactive),> 100 µM (inactive),> 100 µM (inactive),> 100 µM (inactive),> 100 µM (inactive),> 100 µM (inactive),> 100 µM (inactive),> 100 µM (inactive),> 100 µM (inactive),> 100 µM (inactive)
CC1(CC(=O)OC(C#C[Si](C)(C)C)Cc2ccccc2)OCCO1 (configuration not stated),> 100 µM (inactive),> 100 µM (inactive),> 100 µM (inactive),> 100 µM (inactive),–,> 100 µM (inactive),> 100 µM (inactive),> 100 µM (inactive),> 100,> 100 µM (inactive),> 100 µM (inactive),–,> 100 µM (inactive),> 100 µM (inactive),> 100 µM (inactive),> 100 µM (inactive),> 100 µM (inactive),> 100 µM (inactive),> 100 µM (inactive),> 100 µM (inactive)
O=S(=O)(CCn1c(Sc2ccccc2)c(Sc2ccccc2)c2ccccc21)c1ccccc1,> 100 µM (inactive),> 100 µM (inactive),> 100 µM (inactive),> 100 µM (inactive),–,> 100 µM (inactive),> 100 µM (inactive),> 100 µM (inactive),> 100,> 100 µM (inactive),> 100 µM (inactive),> 100 µM (inactive),> 100 µM (inactive),> 100 µM (inactive),> 100 µM (inactive),> 100 µM (inactive),40.5 µM (inactive),> 100 µM (inactive),> 100 µM (inactive),> 100 µM (inactive)
CNc1ccc(C(=O)CC(O)CCC(C)C2OC(=O)CC(O)CC(=O)CC(O)CC(O)CC(O)CC(O)CC3(O)CC(O)C(C(=O)N4CCOCC4)C(CC(OC4OC(C)C(O)C(N)C4O)\C=C/C=C\C=C/C=C/C=C/C=C\C=C/C2C)O3)cc1 (configuration not stated),0.325 µM (active),0.319 µM (active),0.281 µM (active),0.243 µM (active),0.281 µM (active),0.244 µM (active),0.244 µM (active),0.232 µM (active),0.308,0.137 µM (active),0.416 µM (active),0.259 µM (active),0.607 µM (active),0.399 µM (active),0.247 µM (active),0.229 µM (active),0.294 µM (active),–,0.355 µM (active),0.351 µM (active)

# Source: ChEMBL document CHEMBL1201862, “PubChem BioAssay data set” (2004)
